Tests used:
cotton [1] = assay: Postemergent control of plant species; assay type: in vivo, Gossypium spp.; details: Gossypium hirsutum, post-emergence, 336 h, read-out: percent postemergent control
Summary of the method: (§1)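 Each compound is dissolved in acetone, mixed with an equal volume of 0.1% surfactant water, and sprayed on plants grown to 2-4 leaves in nutrient soil. Treated and untreated beds sit under identical greenhouse temperature and light for roughly two weeks before growth reduction is rated.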

rape [2] = assay: Postemergent control of plant species; assay type: in vivo, Brassica napus; details: Brassica napus, post-emergence, 336 h, read-out: percent postemergent control
Summary of the method: as §1

soybean [3] = assay: Postemergent control of plant species; assay type: in vivo, Glycine max.; details: Glycine max, post-emergence, 336 h, read-out: percent postemergent control
Summary of the method: as §1

sugar beet [4] = assay: Postemergent control of plant species; assay type: in vivo, Beta saccharifera; details: Beta vulgaris, post-emergence, 336 h, read-out: percent postemergent control
Summary of the method: as §1

cocklebur = assay: Postemergent control of plant species; assay type: in vivo, Xanthium spp.; details: Xanthium strumarium, post-emergence, 336 h, read-out: percent postemergent control
Protocol: In representative operations, each compound to be utilized in a series of tests is dissolved in acetone to one-half of the final volume (twice the final concentration) to be used and the acetone solution in each case is admixed with an equal volume of water containing 0.1 percent by weight of surface active material. The compositions, generally in the nature of an emulsion, were employed to spray separate respective plant species which had been grown to a 2-4 leaf stage in soil of good nutrient content in a greenhouse. The various beds were positioned side by side and exposed to substantially identical conditions of temperature and light. Each bed was maintained so as to prevent any interaction with test compounds in different seed beds. Other plants were left untreated to serve as controls. After treatment, the plants were maintained for about two weeks under greenhouse conditions conducive for good plant growth and watered as necessary. Control refers to the reduction in growth compared to the observed results of the same untreated species.

jimsonweed [5] = assay: Postemergent control of plant species; assay type: in vivo, Datura stramonium; details: Datura stramonium, post-emergence, 336 h, read-out: percent postemergent control
Summary of the method: as §1

annual morning glory [6] = assay: Postemergent control of plant species; assay type: in vivo, Ipomoea spp.; details: Ipomoea, post-emergence, 336 h, read-out: percent postemergent control
Summary of the method: as §1

pigweed = assay: Postemergent control of plant species; assay type: in vivo, Amaranthus spp.; details: Amaranthus retroflexus, post-emergence, 336 h, read-out: percent postemergent control
Summary of the method: as §1

velvetleaf [7] = assay: Postemergent control of plant species; assay type: in vivo, Abutilon theophrasti; details: Abutilon theophrasti, post-emergence, 336 h, read-out: percent postemergent control
Summary of the method: as §1

corn [8] = assay: Postemergent control of plant species; assay type: in vivo, Zea mays; details: Zea mays, post-emergence, 336 h, read-out: percent postemergent control
Summary of the method: as §1

rice [9] = assay: Postemergent control of plant species; assay type: in vivo, Oryza sativa; details: Oryza sativa, post-emergence, 336 h, read-out: percent postemergent control
Summary of the method: as §1

sorghum [10] = assay: Postemergent control of plant species; assay type: in vivo, Sorghum vulgare; details: Sorghum, post-emergence, 336 h, read-out: percent postemergent control
Summary of the method: as §1

wheat [11] = assay: Postemergent control of plant species; assay type: in vivo, Triticum aestivum; details: Triticum aestivum, post-emergence, 336 h, read-out: percent postemergent control
Summary of the method: as §1

barnyardgrass [12] = assay: Postemergent control of plant species; assay type: in vivo, Echinochloa crusgalli; details: Echinochloa crus-galli, post-emergence, 336 h, read-out: percent postemergent control
Summary of the method: as §1

crabgrass = assay: Postemergent control of plant species; assay type: in vivo, Digitaria spp.; details: Digitaria sanguinalis, post-emergence, 336 h, read-out: percent postemergent control
Summary of the method: as §1

yellow foxtail [13] = assay: Postemergent control of plant species; assay type: in vivo, Setaria lutescens; details: Setaria, post-emergence, 336 h, read-out: percent postemergent control
Summary of the method: as §1

johnson grass [14] = assay: Postemergent control of plant species; assay type: in vivo, Sorghum halepense; details: Sorghum halepense, post-emergence, 336 h, read-out: percent postemergent control
Summary of the method: as §1

yellow nutsedge [15] = assay: Postemergent control of plant species; assay type: in vivo, Cyperus esculentus; details: Cyperus, post-emergence, 336 h, read-out: percent postemergent control
Summary of the method: as §1

cotton [16] = assay: Preemergent control of plant species; assay type: in vivo, Gossypium spp.; details: Gossypium hirsutum, pre-emergence, 336 h; 0.25 lb/acre; read-out: percent preemergent control
Summary of the method: (§2)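 Preemergent application of aqueous emulsions at rates given in the table, uniformly over seeded greenhouse soil. Untreated (water) beds as comparison; rating after 2 weeks as reduction in growth.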

rape [17] = assay: Preemergent control of plant species; assay type: in vivo, Brassica napus; details: Brassica napus, pre-emergence, 336 h; 0.25 lb/acre; read-out: percent preemergent control
Summary of the method: as §2

soybean [18] = assay: Preemergent control of plant species; assay type: in vivo, Glycine max.; details: Glycine max, pre-emergence, 336 h; 0.25 lb/acre; read-out: percent preemergent control
Summary of the method: as §2

sugar beet [19] = assay: Preemergent control of plant species; assay type: in vivo, Beta saccharifera; details: Beta vulgaris, pre-emergence, 336 h; 0.25 lb/acre; read-out: percent preemergent control
Summary of the method: as §2

jimsonweed [20] = assay: Preemergent control of plant species; assay type: in vivo, Datura stramonium; details: Datura stramonium, pre-emergence, 336 h; 0.25 lb/acre; read-out: percent preemergent control
Summary of the method: as §2

annual morning glory [21] = assay: Preemergent control of plant species; assay type: in vivo, Ipomoea spp.; details: Ipomoea, pre-emergence, 336 h; 0.25 lb/acre; read-out: percent preemergent control
Summary of the method: as §2

velvetleaf [22] = assay: Preemergent control of plant species; assay type: in vivo, Abutilon theophrasti; details: Abutilon theophrasti, pre-emergence, 336 h; 0.25 lb/acre; read-out: percent preemergent control
Summary of the method: as §2

corn [23] = assay: Preemergent control of plant species; assay type: in vivo, Zea mays; details: Zea mays, pre-emergence, 336 h; 0.25 lb/acre; read-out: percent preemergent control
Summary of the method: as §2

rice [24] = assay: Preemergent control of plant species; assay type: in vivo, Oryza sativa; details: Oryza sativa, pre-emergence, 336 h; 0.25 lb/acre; read-out: percent preemergent control
Summary of the method: as §2

sorghum [25] = assay: Preemergent control of plant species; assay type: in vivo, Sorghum vulgare; details: Sorghum, pre-emergence, 336 h; 0.25 lb/acre; read-out: percent preemergent control
Summary of the method: as §2

wheat [26] = assay: Preemergent control of plant species; assay type: in vivo, Triticum aestivum; details: Triticum aestivum, pre-emergence, 336 h; 0.25 lb/acre; read-out: percent preemergent control
Summary of the method: as §2

barnyardgrass [27] = assay: Preemergent control of plant species; assay type: in vivo, Echinochloa crusgalli; details: Echinochloa crus-galli, pre-emergence, 336 h; 0.25 lb/acre; read-out: percent preemergent control
Summary of the method: as §2

johnson grass [28] = assay: Preemergent control of plant species; assay type: in vivo, Sorghum halepense; details: Sorghum halepense, pre-emergence, 336 h; 0.25 lb/acre; read-out: percent preemergent control
Summary of the method: as §2

wild oats [29] = assay: Preemergent control of plant species; assay type: in vivo; details: Avena fatua, pre-emergence, 336 h; 0.25 lb/acre; read-out: percent preemergent control
Summary of the method: as §2

yellow foxtail [30] = assay: Preemergent control of plant species; assay type: in vivo, Setaria lutescens; details: Setaria, pre-emergence, 336 h; 0.25 lb/acre; read-out: percent preemergent control
Summary of the method: as §2

yellow nutsedge [31] = assay: Preemergent control of plant species; assay type: in vivo, Cyperus esculentus; details: Cyperus, pre-emergence, 336 h; 0.25 lb/acre; read-out: percent preemergent control
Summary of the method: as §2

wild oats [32] = assay: Postemergent control of plant species; assay type: in vivo, Avena fatua; details: Avena fatua, post-emergence, 336 h, read-out: percent postemergent control
Summary of the method: as §1

Row | SMILES | plant injury at 500 ppm (cotton [1]) [%] | plant injury at 500 ppm (rape [2]) [%] | plant injury at 500 ppm (soybean [3]) [%] | plant injury at 500 ppm (sugar beet [4]) [%] | pest or weed control at 500 ppm (cocklebur) [%] | pest or weed control at 500 ppm (jimsonweed [5]) [%] | pest or weed control at 500 ppm (annual morning glory [6]) [%] | pest or weed control at 500 ppm (pigweed) [%] | pest or weed control at 500 ppm (velvetleaf [7]) [%] | plant injury at 500 ppm (corn [8]) [%] | plant injury at 500 ppm (rice [9]) [%] | plant injury at 500 ppm (sorghum [10]) [%] | plant injury at 500 ppm (wheat [11]) [%] | pest or weed control at 500 ppm (barnyardgrass [12]) [%] | pest or weed control at 500 ppm (crabgrass) [%] | pest or weed control at 500 ppm (yellow foxtail [13]) [%] | pest or weed control at 500 ppm (johnson grass [14]) [%] | pest or weed control at 500 ppm (yellow nutsedge [15]) [%] | pest or weed control at 500 ppm (wild oats [32]) [%] | further results
1 | Cc1ccn2nc(S(=O)(=O)N(c3c(F)cccc3F)S(=O)(=O)c3ccccc3)nc2n1 [Compound 298] | 35 | 85 | 0 | 80 | 50 | 50 | 50 | 100 | 80 | 0 | 40 | 40 | 0 | 65 | 25 | 75 | 50 | 0 | – | plant injury at 280.212 g/ha (cotton [16]): 100%; plant injury at 280.212 g/ha (rape [17]): 100%; plant injury at 280.212 g/ha (soybean [18]): 0%; plant injury at 280.212 g/ha (sugar beet [19]): 100%; pest or weed control at 280.212 g/ha (jimsonweed [20]): 100%; pest or weed control at 280.212 g/ha (annual morning glory [21]): 70%; pest or weed control at 280.212 g/ha (velvetleaf [22]): 100%; plant injury at 280.212 g/ha (corn [23]): 40%; plant injury at 280.212 g/ha (rice [24]): 95%; plant injury at 280.212 g/ha (sorghum [25]): 95%; plant injury at 280.212 g/ha (wheat [26]): 50%; pest or weed control at 280.212 g/ha (barnyardgrass [27]): 100%; pest or weed control at 280.212 g/ha (johnson grass [28]): 95%; pest or weed control at 280.212 g/ha (wild oats [29]): 50%; pest or weed control at 280.212 g/ha (yellow foxtail [30]): 100%; pest or weed control at 280.212 g/ha (yellow nutsedge [31]): 100%
2 | Cc1ccn2nc(S(=O)(=O)Nc3c(F)c(F)cc(F)c3F)nc2n1 [Compound 163] | 0 | 70 | 0 | 0 | 40 | 70 | 0 | 90 | 20 | 0 | 0 | 0 | 0 | 0 | 0 | 50 | 0 | 0 | 0 | –
3 | COC(=O)c1ccc(Cl)c(NS(=O)(=O)c2nc3nc(C)cc(C)n3n2)c1Cl [Compound 82] | 85 | 100 | 85 | 95 | 85 | 90 | 85 | 100 | 85 | 0 | 0 | 0 | 0 | 0 | 0 | 0 | 0 | 0 | 0 | –
4 | Cc1nc2nc(S(=O)(=O)Nc3ccccc3[N+](=O)[O-])nn2c2c1CCC2 [Compound 105] | 35 | 40 | 95 | 90 | 100 | 60 | 70 | 60 | 0 | 80 | 20 | 0 | 0 | 20 | 0 | – | 0 | 0 | 0 | –

From patent US4740233A, “Substituted 1,2,4-triazolo[1,5-a]-pyrimidine-2-sulfonamides and compositions and methods of controlling undesired vegetation and suppressing the nitrification of ammonium nitrogen in soil” (The Dow Chemical Company, priority 1986, dated 1988)
